The results in this text go back to US8501713B2, “Drug combinations for the treatment of duchenne muscular dystrophy” (Summit Corporation PLC, priority 2007, dated 2013).

The experiment has as its system Utrophin A promoter linked to a luciferase reporter gene. The experiment can be described thus: Luciferase reporter assay (murine H2K cells). It is filed as cell-based. The conditions noted are these: for activity at 10 µM: Mus musculus, H2K mdx, read-out: Activity. The method, boiled down: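 Immortalized mdx mouse H2K myoblasts stably carrying a ~5 kb utrophin A promoter–luciferase construct, kept at 33° C, 10% CO2. After 24 hrs plating, compound added at 10 μM final for 48 hrs; luciferase light output read after in-situ lysis.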
On the technique in general: Reporter assays use an easily measured gene product as a stand-in for the process of interest.

The mark [1] stands for this setting: luciferase level relative to control, H2K/mdx/Utro A reporter cells, compound 10 μM final concentration.
The mark [2] stands for this setting: luciferase reporter assay in murine H2K cells, classified relative to control.

Consider `CC(=O)c1ccc2oc(-c3ccc(Cl)c(Cl)c3)nc2c1` [Example 453, 1-(2′-(3″,4″-Dichlorophenyl)benzo[d]oxazol-5′-yl)ethanone], for which the Activity result under setting [1] is recorded as “++++ (Above 401% relative to control)”. As for `CC(C)C(=O)Nc1ccc(-c2nc3ccccc3o2)cc1` [Example 454, N-(4-(Benzo[d]oxazol-2-yl)phenyl)isobutyramide], the activity at 10 µM under setting [1] is greater than 401%. Same read-out and setting: with `CC(O)c1ccc2oc(-c3ccc(Cl)c(Cl)c3)nc2c1` (stereo not shown) [Example 456, 2-(3′,4′-Dichlorophenyl)-5-(1′-hydroxyethyl)-benzoxazole] the figure was greater than 401%. Same read-out and setting: the same measure for `Cc1ccc2nc(-c3ccc(Cl)cc3)oc2c1` [Example 457, 2-(4-Chlorophenyl)-6-methylbenzo[d]oxazole]: greater than 401%. Same read-out and setting: with `Cc1ccc2oc(-c3ccc4ccccc4c3)nc2c1` [Example 458, 5-Methyl-2-(naphthalen-2-yl)benzo[d]oxazole] the figure was greater than 401%. As for `Clc1ccc(SCc2ccc(-c3nc4ccccc4[nH]3)cc2)cc1` [Example 460], under setting [2], the Activity result is “+ (Up to 200% relative to control)”. On the same count and under the same terms, with `Clc1ccc(OCc2nc3ccccc3[nH]2)c(Cl)c1` [Example 461] the entry was “+++ (Between 301% and 400% relative to control)”; with `Cc1ccc2sc(NC(=O)NC(=O)c3c(Cl)cccc3Cl)nc2c1` [Example 462], “+ (Up to 200% relative to control)”; with `c1csc(-c2nc3ccccc3[nH]2)c1` [Example 463], “+ (Up to 200% relative to control)”. The same measure, in the same setting: with `O=C(Nc1cccc(-c2nc3ccccc3[nH]2)c1)c1ccccc1` [Example 464] the entry was “+ (Up to 200% relative to control)”; with `Clc1ccc(OCc2nc3ccccc3n2Cc2ccccc2Cl)c(Cl)c1` [Example 465], “+ (Up to 200% relative to control)”; with `Cc1nc2ccc(NC(=O)Nc3ccccc3)cc2o1` [Example 466], “+ (Up to 200% relative to control)”. Same read-out and setting: with `CNC(=O)Nc1ccc2nc(C)oc2c1` [Example 467] the entry was “+ (Up to 200% relative to control)”. As for `Cc1nc2ccc(NC(=O)NC(=O)c3ccccc3Cl)cc2o1` [Example 468], the Activity entry under setting [2] is recorded as “+ (Up to 200% relative to control)”. On the same count and under the same terms, the same measure for `Clc1ccc(-c2nc3cc(CN4CCCCC4)ccc3o2)cc1` [Example 469]: “+ (Up to 200% relative to control)”. Turning to `COc1ccc(-c2nc3ccccc3[nH]2)cc1` [Example 470], under setting [2], the Activity result was “++ (Between 201% and 300% relative to control)”. Still for that read-out and setting: the same measure for `c1ccc(OCc2nc3ccccc3[nH]2)cc1` [Example 471]: “++ (Between 201% and 300% relative to control)”; for `Cn1c(-c2ccc([N+](=O)[O-])cc2)nc2ccccc21` [Example 472]: “+ (Up to 200% relative to control)”; for `COc1ccc(OCc2nc3ccccc3[nH]2)cc1` [Example 473]: “++ (Between 201% and 300% relative to control)”. On the same count and under the same terms, the same measure for `Cn1c(COc2ccccc2)nc2ccccc21` [Example 474]: “+ (Up to 200% relative to control)”. For `Nc1ccc(-c2nc3ccccc3[nH]2)cc1` [Example 475], the Activity result under setting [2] is on record as “+ (Up to 200% relative to control)”. In the case of `Nc1ccc2nc(-c3ccc(-c4nc5ccc(N)cc5[nH]4)cc3)[nH]c2c1` [Example 476], under setting [2], the Activity result is reported as “+ (Up to 200% relative to control)”.

For the molecule `O=[N+]([O-])c1ccc(-c2nc3ccccc3o2)cc1` [Example 477], the Activity result under setting [2] was “+ (Up to 200% relative to control)”. `Nc1ccc(-c2nc3ccccc3o2)cc1` [Example 478]: the Activity result under setting [2] is “++ (Between 201% and 300% relative to control)”.

For the molecule `Cc1ccc(-c2nc3ccccc3s2)cc1N` [Example 479], the Activity result under setting [2] is “++ (Between 201% and 300% relative to control)”.

For `Nc1ccc2oc(-c3ccc(Cl)c(Cl)c3)nc2c1` [Example 480], the Activity entry under setting [2] is “++ (Between 201% and 300% relative to control)”. Still for that read-out and setting: with `CCc1ccc(-c2nc3cc(N)ccc3o2)cc1` [Example 481] the entry was “++ (Between 201% and 300% relative to control)”; with `Cc1cc(C)cc(-c2nc3cc(N)ccc3o2)c1` [Example 482], “+ (Up to 200% relative to control)”; with `Oc1ccccc1-c1nc2ccccc2s1` [Example 483], “+ (Up to 200% relative to control)”. `Nc1ccc(-c2nc3ccccc3o2)c(O)c1` [Example 484]: the Activity result under setting [2] is “++ (Between 201% and 300% relative to control)”. The same measure, in the same setting: the same measure for `Cc1cc2nc(-c3ccc(N)cc3)oc2cc1C` [Example 485]: “++ (Between 201% and 300% relative to control)”. On the same count and under the same terms, the same measure for `CN(C)c1ccc(-c2nc3ccccc3o2)cc1` [Example 486]: “+ (Up to 200% relative to control)”; for `Nc1ccc2oc(-c3ccc(Cl)cc3)nc2c1` [Example 488]: “++ (Between 201% and 300% relative to control)”; for `Nc1ccc2oc(-c3cccc(Cl)c3)nc2c1` [Example 489]: “++ (Between 201% and 300% relative to control)”. In the case of `Cn1c(-c2ccc(N)cc2)nc2cc(N)ccc21` [Example 490], under setting [2], the Activity result is “+ (Up to 200% relative to control)”. The same measure, in the same setting: with `CN(C)c1ccc(-c2nc3cc(N)ccc3o2)cc1` [Example 491] the entry was “++ (Between 201% and 300% relative to control)”; with `O=[N+]([O-])c1ccc2oc(-c3ccccc3)nc2c1` [Example 492], “++ (Between 201% and 300% relative to control)”; with `O=C(Cc1cccs1)Nc1ccc(-c2nc3ccccc3[nH]2)cc1` [Example 493], “+ (Up to 200% relative to control)”. `COc1ccc(C(=O)Nc2ccc(-c3nc4ccccc4[nH]3)cc2)cc1OC` [Example 494]: the Activity result under setting [2] is “+ (Up to 200% relative to control)”. On the same count and under the same terms, the same measure for `Clc1ccc(OCc2nc3ccccc3[nH]2)cc1` [Example 495]: “+ (Up to 200% relative to control)”; for `Nc1ccc2oc(-c3ccc(O)cc3)nc2c1` [Example 496]: “++ (Between 201% and 300% relative to control)”.

In the case of `O=C(Nc1ccc(-c2nc3ccccc3[nH]2)cc1)c1ccccc1` [Example 497], the Activity entry under setting [2] was “+ (Up to 200% relative to control)”. Same read-out and setting: the same measure for `CN(C)c1ccc(-c2nc3ccccc3[nH]2)cc1` [Example 498]: “+ (Up to 200% relative to control)”. On the same count and under the same terms, with `COCc1nc2ccccc2[nH]1` [Example 499] the entry was “+ (Up to 200% relative to control)”; with `O=C(Nc1ccccc1-c1nc2ccccc2[nH]1)c1ccc(Cl)cc1Cl` [Example 500], “+ (Up to 200% relative to control)”; with `O=C(Cc1ccccc1)Nc1ccc(-c2nc3ccccc3[nH]2)cc1` [Example 501], “+ (Up to 200% relative to control)”. The same measure, in the same setting: the same measure for `CCc1ccc2oc(-c3cccc(N)c3)nc2c1` [Example 502]: “++ (Between 201% and 300% relative to control)”; for `CC(=O)Nc1cccc(-c2nc3ccccc3[nH]2)c1` [Example 503]: “+ (Up to 200% relative to control)”; for `O=C(Nc1cccc(-c2nc3ccccc3[nH]2)c1)c1cccs1` [Example 504]: “+ (Up to 200% relative to control)”.

As for `Cc1ccc2oc(-c3ccc([N+](=O)[O-])cc3)nc2c1` [Example 505], the Activity result under setting [2] is “++ (Between 201% and 300% relative to control)”.

For the molecule `Cc1ccc2nc(-c3ccc(N)cc3)oc2c1` [Example 506], the Activity entry under setting [2] is listed as “+ (Up to 200% relative to control)”.

Take `Fc1ccccc1-c1nc2ccccc2[nH]1` [Example 507]: the Activity result under setting [2] is “++ (Between 201% and 300% relative to control)”. Regarding `O=[N+]([O-])c1ccc2[nH]c(-c3ccco3)nc2c1` [Example 508], the Activity result under setting [2] was “+ (Up to 200% relative to control)”.

Regarding `CN(C)c1ccc(-c2nc3cc([N+](=O)[O-])ccc3[nH]2)cc1` [Example 509], the Activity entry under setting [2] was “++ (Between 201% and 300% relative to control)”.

For the molecule `Cl.Cl.Nc1ccc2[nH]c(-c3ccco3)nc2c1` [Example 510], the Activity result under setting [2] is “+ (Up to 200% relative to control)”. The same measure, in the same setting: with `O=C(Nc1ccccc1-c1nc2ccccc2[nH]1)c1ccc(S(=O)(=O)N2CCCC2)cc1` [Example 511] the entry was “+ (Up to 200% relative to control)”; with `COc1ccc(-c2nc3cc(N)ccc3o2)cc1` [Example 512], “+ (Up to 200% relative to control)”; with `CC(=O)Nc1cccc(-c2nc3ccccc3s2)c1` [Example 513], “+ (Up to 200% relative to control)”. `Clc1cccc(-c2nc3ccccc3[nH]2)c1` [Example 514]: under setting [2], the Activity result is listed as “+ (Up to 200% relative to control)”. In the case of `COc1ccc(-c2nc3cc(N)ccc3o2)cc1OC` [Example 515], the Activity entry under setting [2] was “++ (Between 201% and 300% relative to control)”. The same measure, in the same setting: with `O=S(=O)(c1ccc(-c2nc3ccccc3s2)cc1)N1CCCCC1` [Example 516] the entry was “++ (Between 201% and 300% relative to control)”. On the same count and under the same terms, the same measure for `CC(=O)Nc1ccc2oc(-c3ccc(Cl)cc3Cl)nc2c1` [Example 517]: “++ (Between 201% and 300% relative to control)”.

Regarding `Nc1ccc(-c2nc3cc(Cl)cc(Cl)c3o2)cc1` [Example 518], the Activity entry under setting [2] is “++ (Between 201% and 300% relative to control)”. Still for that read-out and setting: the same measure for `COc1ccc(-c2nc3cc(NC(C)=O)ccc3o2)cc1Cl` [Example 519]: “++ (Between 201% and 300% relative to control)”; for `COc1ccc(-c2nc3cc([N+](=O)[O-])ccc3[nH]2)cc1OC` [Example 520]: “+ (Up to 200% relative to control)”.

For the molecule `COc1ccc(-c2nc3ccccc3n2C)cc1OC` [Example 521], the Activity entry under setting [2] was “+ (Up to 200% relative to control)”. Same read-out and setting: with `COc1ccccc1-c1nc2ccccc2s1` [Example 522] the entry was “+ (Up to 200% relative to control)”.
